Data: patent US11583531B2, “Solid forms of a toll-like receptor modulator” (Gilead Sciences, Inc., priority 2019, dated 2023)

Assay: Dynamic vapor sorption (moisture sorption/desorption)
Assay type: physicochemical
Details: for solid form after the DVS experiment (form stability): post-DVS analysis, 5% to 95% RH cycle; for water absorbed (dynamic vapor sorption): up to 95% RH at 25° C.
Method: Moisture sorption/desorption data were collected on a VTI SGA-100 Vapor Sorption Analyzer. NaCl and PVP were used as calibration standards. Samples were not dried prior to analysis. Sorption and desorption data were collected over a range from 5% to 95% RH at 10% RH increments under a nitrogen purge. The equilibrium criterion used for analysis was less than 0.0100% weight change in 5 minutes with a maximum equilibration time of 3 hours. Weight percentages reported in the data section are relative to the total sample mass introduced prior to equilibration at 5% RH as measured on the instrument.

| solid form after the DVS experiment (form stability) | water absorbed (dynamic vapor sorption) | Compound | other results |
| --- | --- | --- | --- |
| not have changed forms | about 0.89% | CCCC[C@](C)(CO)Nc1nc(N)nc2cc(F)cnc12 [Compound I Form I, (R)-2-((2-amino-7-fluoropyrido[3,2-d]pyrimidin-4-yl)amino)-2-methylhexan-1-ol] | – |
| not have changed forms | about 2.3% | CCCC[C@](C)(CO)Nc1nc(N)nc2cc(F)cnc12.O=C(O)/C=C/C(=O)O [Compound I Fumaric Acid, (R)-2-((2-amino-7-fluoropyrido[3,2-d]pyrimidin-4-yl)amino)-2-methylhexan-1-ol fumaric acid] | – |
| – | – | CCCC[C@](C)(CO)Nc1nc(N)nc2cc(F)cnc12.Cl [Compound I HCl Form I, (R)-2-((2-amino-7-fluoropyrido[3,2-d]pyrimidin-4-yl)amino)-2-methylhexan-1-ol hydrochloride] | hygroscopicity by dynamic vapor sorption (5% to 95% RH): hygroscopic; further weight loss, desorption curve (below 65% RH down to 5% RH): No further weight % loss was observed; weight gain, sorption cycle (between 5% and 55% RH): approximately 0.6%; weight gain, sorption cycle (between 65% RH and 95% RH): approximately 28.1%; weight loss, desorption curve (between 85% and 65% RH): 1.8%; weight loss, desorption curve (from 95% to 85% RH): approximately 11.2%; solid form after the DVS experiment (form stability) (hydrochloride): composed of a new crystalline material, designated Compound I Hydrochloride Form II |
| – | – | CCCC[C@](C)(CO)Nc1nc(N)nc2cc(F)cnc12.Cl [Compound I HCl Form II, (R)-2-((2-amino-7-fluoropyrido[3,2-d]pyrimidin-4-yl)amino)-2-methylhexan-1-ol hydrochloride] | weight gain, sorption cycle (from 5% to 95% RH): approximately 19.8%; solid form after the DVS experiment (form stability) (hydrochloride): not have changed forms |
| not have changed forms | about 0.11% | CCCC[C@](C)(CO)Nc1nc(N)nc2cc(F)cnc12.O=C(O)/C=C\C(=O)O [Compound I Maleic Acid, (R)-2-((2-amino-7-fluoropyrido[3,2-d]pyrimidin-4-yl)amino)-2-methylhexan-1-ol maleic acid] | – |
| not have changed forms | about 38% | CCCC[C@](C)(CO)Nc1nc(N)nc2cc(F)cnc12.CS(=O)(=O)O [Compound I Methanesulfonic Acid, (R)-2-((2-amino-7-fluoropyrido[3,2-d]pyrimidin-4-yl)amino)-2-methylhexan-1-ol methanesulfonic acid] | – |
| not have changed forms | about 1.5% | CCCC[C@](C)(CO)Nc1nc(N)nc2cc(F)cnc12.O=C(O)C(O)C(O)C(=O)O [Compound I Tartaric Acid, (R)-2-((2-amino-7-fluoropyrido[3,2-d]pyrimidin-4-yl)amino)-2-methylhexan-1-ol tartaric acid] | – |
